The structures appear in SMILES notation. Values joined by “and” are separate entries in the source; they are usually repeats but may differ in a detail not shown here. Identical values can stand only once.

Assay type in all cases: cell-based, human
In assay [1] the test system is IFNAR1 cell surface levels in MCF10A BRCC45 R137A cells. The assay can be described thus: MCF10A BRCC45 R137A IFNAR1 cell surface levels (FACS). The note with it: for IFNAR1 cell surface levels (Fig. 5g): BRCC45 KO + BRCC45 R137A, IFN + compound, No IFN about 100; for IFNAR1 cell surface levels: BRCC45 R137A cells, IFN 50 ng/ml, 5 μM, 90 min. Here is the method: To study the direct effect of BRISC DUB inhibitors, IFNAR1 surface levels were measured using flow cytometry (FACS) analysis. For this purpose, MCF10A WT and MCF10A BRCC45 KO cells expressing […]
BRCC45 WT or BRCC45 R137A were used. […]
minutes prior to the addition of 50 ng/mL of hIFN-Iα for various time points (45 minutes and 90 minutes).
After IFN treatment, cells were dissociated from plate using cell dissociation Buffer (ThermoFisher Scientific, #13150016) and were stained with LIVE/DEAD™ Fixable Violet Dead Cell Stain Kit, for 405 nm excitation (ThermoFisher Scientific, #L34963) for 30 minutes, as per the kit protocol. The cells were then washed using FACS buffer (DPBS, 1% BSA, 2 mM EDTA, 0.09% sodium azide) and transferred to 96-well round bottom plates. Resuspended cells were divided into three repeats for each sample, each was surface stained for 1 hour at 4 °C with: 1. Human IFN-alpha/beta R1 Antibody (R&D systems, #MAB245), 2. Mouse IgG1 Isotype Control (R&D systems, #MAB002), 3. FACS buffer (control cells).
Following incubation, cells were washed once with FACS buffer and were labelled for 30 minutes at 4 °C with either Biotin-SP-conjugated AffiniPure Donkey Anti-Mouse IgG (H+L) (Jackson Immunoresearch Laboratories) for samples 1 and 2 or with FACS buffer for sample 3. Cells were washed twice with FACS buffer and were labelled for 15 minutes at 4 °C with either R-Phycoerythrin-conjugated Streptavidin (Jackson Immunoresearch Laboratories) for samples 1 and 2 or with FACS buffer for sample 3. Cells were washed 3 times with FACS buffer and were analysed by FACS (MACSQuant, Miltenyi Biotec). For each sample from group 1 the Geo mean fluorescence intensity (MFI) of its isotype sample was reduced. IFNAR1 cell surface percentage was calculated by 100*(MFI

The subject of assay [2] is ISRE in THP-1 cells (TLR3 agonist polyI:C). The assay can be described thus: THP-1 ISRE luciferase reporter, polyI:C stimulation. The following applies: polyI:C 1 µg/mL, 4 μM compound, 16 h. Here is the method:
(§1) THP-1 in vitro experiments
(§2) THP-1-DualTM cells (InvivoGen), derived from a human monocytic cell line, isolated from a patient with acute monocytic leukaemia, were cultured as per manufacturer’s guidance. Cells were seeded at 1x10^6 cells/mL in RPMI1640 media containing 10% fetal bovine serum (FBS), 1% penicillin-streptomycin (PS) (Gibco Laboratories) with DMSO (0.1%) (control) or in media containing JMS-175- […]
(§3) ng/mL) (Merck Life Science), ODN 2216 (1 µM) (Miltenyi Biotec), or Poly:IC (1 µg/mL) (InvivoGen).
(§4) Tofacitinib (Cambridge Biosciences) at 0.4 µM was used for comparison against a known JAK inhibitor.
(§5) Cells were centrifuged at 300 g for 5 minutes. Supernatant was removed and subjected to simultaneous study of the NF -κB pathway, by monitoring the activity of secreted alkaline phosphatase reporter (SEAP), and the IRF pathway, by assessing the activity o f a secreted Lucia luciferase using QUANTI - Blue ™ Solution and QUANTI -Luc™ 4 Lucia/Gaussia (InvivoGen), respectively, as per manufacturer’s instructions. Pelleted cells were used for FACS analysis using IFNα/β R1 APC-conjugated antibody or isotype control (Biotechne, FAB245A and IC002A), or unstained staining procedure with and without Zombie GreenTM (Biolegend). Samples were analysed using CytoFlex LX (Beckman) (50,000 live cells per condition). Median fluorescence intensity for APC channel gated on single cell live cells was analysed and compared as a percentage to control (no stimulation condition). […]

The subject of assay [3] is IFN-stimulated response elements (ISRE) in THP-1 cells. The assay can be described thus: THP-1 ISRE luciferase reporter, IFNα2 stimulation. The following applies: IFN + compound; replicate values. Here is the method: as §1, §2, §3, §4, §5
(In general: Reporter assays use an easily measured gene product as a stand-in for the process of interest.)

On to `O=C(NC1CCNCC1)c1nn(C(=O)c2c(Cl)cccc2Cl)cc1NC(=O)c1c(Cl)cccc1Cl` [JMS-175-2], for which, in assay [1], the “IFNAR1 cell surface levels (Fig. 5g)” value was 50.1158 and 49.56 and 49.1431; the “IFNAR1 cell surface levels” value was “not reduced”. The “ISRE luciferase signal in THP-1 supernatant” value (“ISRE luciferase signal” below) in assay [2] is 486.333 and 543 and 491. Besides, in assay [3], the “ISRE luciferase reporter signal (Fig. 5a)” value is 2914 and 3263.67 and 4737.67 and 4742.67.

In the case of `Cn1cc(NC(=O)c2c(Cl)cccc2Cl)c(C(=O)NC2CCN(C(=O)c3c(Cl)cccc3Cl)CC2)n1` [AP-5-145], the “IFNAR1 cell surface levels (Fig. 5g)” value in assay [1] was 55.396 and 54.5623 and 54.7013. Also, in assay [2], the “ISRE luciferase signal” value was 502.333 and 324.667 and 347.333. Also, the “ISRE luciferase reporter signal (Fig. 5a)” value in assay [3] was 5071.67 and 5115.33 and 6389 and 6090.67.

As to `O=C(NC1C2CNCC21)c1nn(C(=O)c2c(Cl)cccc2Cl)cc1NC(=O)c1c(Cl)cccc1Cl` (centres unmarked) [FX-171-C], in assay [1], the “IFNAR1 cell surface levels (Fig. 5g)” value was 49.6989 and 47.3367 and 48.4484; the “IFNAR1 cell surface levels” value is given as “not reduced”. Also, in assay [2], the “ISRE luciferase signal” value was 374 and 491 and 321. In addition, the “ISRE luciferase reporter signal (Fig. 5a)” value in assay [3] was 3973.33 and 4177.33 and 5441.67 and 5023.67.

For the origin of these results see PMC7617869, “Molecular glues that inhibit deubiquitylase activity and inflammatory signaling” (Nature Structural & Molecular Biology, 2025).
